This assay addresses Dipeptidyl peptidase 1 (Homo sapiens, UniProt P53634). Nature of the assay: In Vitro Inhibitory Assay. The protocol:
The compound was diluted with DMSO to a 384-well echo plate at a concentration of 100× of the highest concentration at the beginning of the experiment. 0.2 μL of the diluted compound was pipetted to a black-bottomed 384-well reaction plate for later use. […] The solution was added to the black-bottom 384-well reaction plate ([…]). 10 μL of the buffer was added for the vehicle control group. The plate containing compounds in its wells was incubated at room temperature for 30 minutes.

Each structure is given as a SMILES string. pIC50: −log10 of the molar value.

Sequence of Dipeptidyl peptidase 1 (P53634 25-134 limits assumed): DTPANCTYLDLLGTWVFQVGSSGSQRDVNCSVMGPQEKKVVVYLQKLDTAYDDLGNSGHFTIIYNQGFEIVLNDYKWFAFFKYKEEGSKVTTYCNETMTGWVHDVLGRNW
Sequence of Dipeptidyl peptidase 1 (P53634 231-394 limits assumed): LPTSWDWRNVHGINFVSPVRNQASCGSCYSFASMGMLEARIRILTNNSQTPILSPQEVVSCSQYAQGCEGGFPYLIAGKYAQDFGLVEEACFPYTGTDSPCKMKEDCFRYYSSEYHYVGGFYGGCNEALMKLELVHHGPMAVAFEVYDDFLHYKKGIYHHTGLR
Sequence of Dipeptidyl peptidase 1 (P53634 395-463 limits assumed): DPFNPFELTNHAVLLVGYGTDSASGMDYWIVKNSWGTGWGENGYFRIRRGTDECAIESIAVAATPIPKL

In general, pIC50 refers to the negative decadic logarithm of the IC50, by convention in mol/L. As to `N#C[C@H](Cc1ccc2c(c1)CC(=O)N(c1ccc(F)cc1)C2)NC(=O)C1(N)CCCCC1` [US20240083888, Compound 58], the pIC50 was 7.77.

Source of the values: BindingDB's records for patent US20240083888 (Reistone Biopharma Company, 2024).
